According to ChEMBL document CHEMBL5036364, “Cadinane-Type Sesquiterpenoids with Cytotoxic Activity from the Infected Stems of the Semi-mangrove Hibiscus tiliaceus” (J Nat Prod, 2022):

Legend:
Huh-7 = assay: Cytotoxicity against human Huh-7 cells assessed as inhibition of cell growth in presence of 10% fetal bovine serum measured after 48 hrs incubation by MTT assay; assay type: functional, cell-based; conditions: Huh-7, 48 h
HepG2 = assay: Cytotoxicity against human HepG2 cells assessed as inhibition of cell growth n presence of 10% fetal bovine serum measured after 48 hrs incubation by MTT assay; assay type: functional, cell-based; conditions: HepG2, 48 h

Compound	IC50 (Huh-7) [µM]	IC50 (HepG2) [µM]
CO[C@@]1(C)C[C@@H]2c3c(coc3C1=O)C(=O)C[C@H]2C(C)C	6.6	4.8
CC(C)[C@@H]1C=Cc2coc3c2[C@H]1C[C@@H](C)C3=O	6.4	6.8
COc1c(O)c(C)cc2c(C(C)C)cc(O)c(C=O)c12	> 10	> 10
COc1c(C)cc2c(C(C)C)cc(O)c(C=O)c2c1O	> 10	> 10
Cc1cc2c(C(C)C)cc(O)c(C=O)c2oc1=O	4	3.7
